Consider 2 compounds from patent US8044082B2, “N-phenylacetamide inhibitors of the enzyme SOAT-1 and pharmaceutical/cosmetic compositions comprised thereof” (Galderma Research & Development, priority 2007, dated 2011).

Data set [1] concerns the target T1, enzyme ACAT-1 (Homo sapiens, UniProt P35610).
T1 sequence (P35610 1-550): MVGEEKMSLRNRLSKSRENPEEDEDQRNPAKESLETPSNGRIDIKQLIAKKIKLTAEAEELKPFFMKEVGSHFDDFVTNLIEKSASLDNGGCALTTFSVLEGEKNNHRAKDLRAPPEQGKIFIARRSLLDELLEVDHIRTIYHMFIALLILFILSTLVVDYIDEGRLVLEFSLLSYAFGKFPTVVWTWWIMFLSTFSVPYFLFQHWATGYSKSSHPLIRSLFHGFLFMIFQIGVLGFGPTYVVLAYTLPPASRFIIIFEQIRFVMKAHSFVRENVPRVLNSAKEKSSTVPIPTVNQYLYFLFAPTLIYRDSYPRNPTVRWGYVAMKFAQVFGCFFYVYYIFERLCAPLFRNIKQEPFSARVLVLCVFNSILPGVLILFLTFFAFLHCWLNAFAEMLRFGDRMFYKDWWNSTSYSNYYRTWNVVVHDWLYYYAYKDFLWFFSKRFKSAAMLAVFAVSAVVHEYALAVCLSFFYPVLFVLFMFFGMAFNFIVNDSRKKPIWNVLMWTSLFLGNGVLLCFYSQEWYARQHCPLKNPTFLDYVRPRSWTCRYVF
The experiment in a line: ACAT-1 (SOAT-1) inhibition test in HepG2 cells with NBD-cholesterol fluorescence. It is filed as cell-based. The following applies: NBD-cholesterol 1 μg/ml, incubation 6 h at 37° C., fluorescence excitation 490 nm / emission 540 nm. Here is the method:
The compounds (I) according to the invention, as well as their pharmaceutically acceptable salts, solvates and/or hydrates, have inhibitory properties on the enzyme SOAT-1. This inhibitory activity on the enzyme SOAT-1 is measured according to a primary enzymatic test HepG2, as described in Example 64.
The compounds of formula (I) according to the invention have been subjected to a test allowing their inhibitory action with respect to the enzyme ACAT-1 to be evaluated inspired by the following publication: “Identification of ACAT1- and ACAT2-specific inhibitors using a novel, cell-based fluorescence assay: individual ACAT uniqueness”, J. Lipid Res. (2004) vol. 45, pages 378-386.
The principle of this test is based on the employment of NBD-cholesterol, an analogue of cholesterol whose fluorescence depends on its environment. When this is present in a polar environment, it is weakly fluorescent although in a nonpolar environment it is strongly fluorescent. Free NBD-cholesterol locates itself in the cell membranes and is weakly fluorescent in this polar environment. When the NBD-cholesterol is esterified by ACAT, the ester of NBD-cholesterol locates itself in the nonpolar lipid droplets and is in that case strongly fluorescent.
The method below is applied: The HepG2 cells are incubated in the presence of NBD-cholesterol (1 μg/ml) and of the compound of formula (I) to be tested in black 96-well plates with a transparent base at a rate of 30 000 cells per well. After incubation for 6 h at 37° C., under 5% CO2, the medium is eliminated by turning over and the cells are washed with 2 times 100 μl of PBS. After addition of 50 μl of lysis buffer (NaPO4 10 mM, Igepal 1%), the plates are stirred for 5 min and read in fluorescence (excitation 490 nm, emission 540 nm) on a FUSION apparatus (Perkin-Elmer).

`CCC1(CC)C(=O)N(CC(=O)Nc2c(C(C)C)cccc2C(C)C)C(=O)N1c1ccc(C)cc1` [compound (I.39), 2-(4,4-Diethyl-2,5-dioxo-3-p-tolylimidazolidin-1-yl)-N-(2,6-diisopropylphenyl)acetamide]: the melting point was found to be 174 °C. The compound further yielded an IC50 in data set [1] of 0.7 nM.
`CC(C)c1cccc(C(C)C)c1NC(=O)CN1C(=O)N(C2CCCCC2)C2(CCCCC2)C1=O` [compound (I.14), 2-[1-Cyclohexyl-2,4-dioxo-1,3-diazaspiro[4.5]dec-3-yl)-N-(2,6-diisopropyl-phenyl)acetamide]: the melting point came out at 236 °C. Also, half-maximal inhibition in data set [1] (IC50) was put at 4.8 nM.
